Like-named read-outs stand apart in the source and are kept apart here.
Experiments:
134 cancer cell lines = test: Cell viability assay (ATPlite, 72 hours), IC50 on cancer cell line panel
[1] = molecular target: panel of 255 wild-type kinases (Homo sapiens, UniProt P45983); test: Kinase panel profiling at 1 µmol/L (MSA or IMAP), percentage inhibition; format: biochemical; settings: kinase JNK1; 1 µmol/L single concentration; read-out: %-inhibition at 1 µmol/L, JNK1
[2] = molecular target: panel of 255 wild-type kinases (Homo sapiens, UniProt Q00526); test: as above; format: biochemical; settings: CDK3/CycE1 kinase assay; 1 µmol/L single concentration; read-out: %-inhibition CDK3/CycE1
[3] = molecular target: panel of 255 wild-type kinases (Homo sapiens, UniProt P50613); test: as above; format: biochemical; settings: CDK7/CycH/MAT1 kinase assay; 1 µmol/L single concentration; read-out: %-inhibition CDK7/CycH/MAT1
[4] = molecular target: panel of 255 wild-type kinases (Homo sapiens, UniProt P22607); test: as above; format: biochemical; settings: kinase FGFR3; 1 µmol/L single concentration; read-out: %-inhibition at 1 µmol/L, FGFR3
[5] = molecular target: panel of 255 wild-type kinases (Homo sapiens, UniProt P49760); test: as above; format: biochemical; settings: kinase CLK2; 1 µmol/L single concentration; read-out: %-inhibition at 1 µmol/L, CLK2
[6] = molecular target: panel of 255 wild-type kinases (Homo sapiens, UniProt Q96RG2); test: as above; format: biochemical; settings: PASK; 1 µmol/L single concentration; read-out: %-inhibition, PASK
[7] = molecular target: panel of 255 wild-type kinases (Homo sapiens, UniProt Q13177); test: as above; format: biochemical; settings: PAK2; 1 µmol/L single concentration; read-out: %-inhibition, PAK2
[8] = molecular target: panel of 255 wild-type kinases (Homo sapiens, UniProt Q9HBH9); test: as above; format: biochemical; settings: MNK2; 1 µmol/L single concentration; read-out: %-inhibition, MNK2
[9] = molecular target: panel of 255 wild-type kinases (Homo sapiens, UniProt O75582); test: as above; format: biochemical; settings: MSK1; 1 µmol/L single concentration; read-out: %-inhibition, MSK1

## Cc1nc(NC(=O)N2CCC[C@H]2C(N)=O)sc1-c1ccnc(C(C)(C)C(F)(F)F)c1 [alpelisib]
134 cancer cell lines; Homo sapiens, NCI-H460, read-out: IC50 in cell proliferation assay, NCI-H460 cell line
  IC50: 7.11 µM
134 cancer cell lines; Homo sapiens, NCI-H661, read-out: IC50 in cell proliferation assay, NCI-H661 cell line
  IC50: 9.63 µM
134 cancer cell lines; Homo sapiens, NCI-H716, read-out: IC50 in cell proliferation assay, cell line NCI-H716 (FGFR2-COL14A1)
  IC50: 0.049 µM
134 cancer cell lines; Homo sapiens, NCI-H1650, read-out: IC50 in cell proliferation assay, NCI-H1650 cell line (EGFR exon19del)
  IC50: 18.1 µM
134 cancer cell lines; Homo sapiens, NCI-H1975, read-out: IC50 in cell proliferation assay, NCI-H1975 cell line (EGFR p.L858R + p.T790M)
  IC50: 1.49 µM
134 cancer cell lines; Homo sapiens, NCI-H2228, read-out: IC50 in cell proliferation assay, NCI-H2228 cell line (EML4-ALK)
  IC50: 4.04 µM
134 cancer cell lines; Homo sapiens, OVCAR-3, read-out: IC50 in cell proliferation assay, cell line OVCAR-3
  IC50: 6.11 µM
134 cancer cell lines; Homo sapiens, PFSK-1, read-out: IC50 in cell proliferation assay, cell line PFSK-1
  IC50: 0.52 µM
134 cancer cell lines; Homo sapiens, RL95-2, read-out: IC50 in cell proliferation assay, cell line RL95-2 (EGFR p.A289V)
  IC50: 18.3 µM
134 cancer cell lines; Homo sapiens, RPMI-7951, read-out: IC50 in cell proliferation assay, cell line RPMI-7951 (BRAF p.V600E)
  IC50: 10.1 µM
134 cancer cell lines; Homo sapiens, RS4-11, read-out: IC50 in cell proliferation assay, cell line RS4;11
  IC50: 4.25 µM
134 cancer cell lines; Homo sapiens, Rec1, read-out: IC50 in cell proliferation assay, cell line REC-1
  IC50: 3.14 µM
134 cancer cell lines; Homo sapiens, SHP77, read-out: IC50 in cell proliferation assay, cell line SHP-77
  IC50: > 31.6 µM
134 cancer cell lines; Homo sapiens, SK-BR-3, read-out: IC50 in cell proliferation assay, cell line SK-BR-3 (ERBB2 amplification)
  IC50: 0.676 µM
134 cancer cell lines; Homo sapiens, SK-N-AS, read-out: IC50 in cell proliferation assay, cell line SK-N-AS
  IC50: 0.065 µM
134 cancer cell lines; Homo sapiens, SK-N-FI, read-out: IC50 in cell proliferation assay, cell line SK-N-FI
  IC50: 3.1 µM
134 cancer cell lines; Homo sapiens, SK-N-MC, read-out: IC50 in cell proliferation assay, cell line SK-N-MC
  IC50: 2.6 µM
134 cancer cell lines; Homo sapiens, SK-N-SH, read-out: IC50 in cell proliferation assay, cell line SK-N-SH (ALK p.F1174L)
  IC50: 0.42 µM
134 cancer cell lines; Homo sapiens, SNU-5, read-out: IC50 in cell proliferation assay, cell line SNU-5 (MET amplification)
  IC50: 13.9 µM
134 cancer cell lines; Homo sapiens, SNU-16, read-out: IC50 in cell proliferation assay, cell line SNU-16 (FGFR2 amplification)
  IC50: > 31.6 µM
134 cancer cell lines; Homo sapiens, SNU-C2B, read-out: IC50 in cell proliferation assay, cell line SNU-C2B (EGFR p.R165Q)
  IC50: 7.04 µM
134 cancer cell lines; Homo sapiens, SU-DHL-1, read-out: IC50 in cell proliferation assay, cell line SU-DHL-1 (NPM1-ALK)
  IC50: 21.2 µM
134 cancer cell lines; Homo sapiens, SU-DHL-6, read-out: IC50 in cell proliferation assay, cell line SU-DHL-6
  IC50: 1.55 µM
134 cancer cell lines; Homo sapiens, SUP-T1, read-out: IC50 in cell proliferation assay, cell line SUP-T1
  IC50: 6.02 µM
134 cancer cell lines; Homo sapiens, SW48, read-out: IC50 in cell proliferation assay, cell line SW48 (EGFR p.G719S)
  IC50: 1.15 µM
134 cancer cell lines; Homo sapiens, SW480, read-out: IC50 in cell proliferation assay, cell line SW480
  IC50: 8.85 µM
134 cancer cell lines; Homo sapiens, SW626, read-out: IC50 in cell proliferation assay, cell line SW626
  IC50: 8.63 µM
134 cancer cell lines; Homo sapiens, SW780, read-out: IC50 in cell proliferation assay, cell line SW780 (FGFR3-BAIAP2L1)
  IC50: 9.85 µM
134 cancer cell lines; Homo sapiens, SW837, read-out: IC50 in cell proliferation assay, cell line SW837
  IC50: 21.9 µM
134 cancer cell lines; Homo sapiens, SW872, read-out: IC50 in cell proliferation assay, cell line SW872 (BRAF p.V600E)
  IC50: 18.8 µM
134 cancer cell lines; Homo sapiens, SW900, read-out: IC50 in cell proliferation assay, cell line SW900
  IC50: 4.43 µM
134 cancer cell lines; Homo sapiens, SW948, read-out: IC50 in cell proliferation assay, cell line SW948
  IC50: 3.3 µM
134 cancer cell lines; Homo sapiens, SW982, read-out: IC50 in cell proliferation assay, cell line SW982 (BRAF p.V600E)
  IC50: 22.6 µM
134 cancer cell lines; Homo sapiens, SW-620, read-out: IC50 in cell proliferation assay, cell line SW620
  IC50: 6.94 µM
134 cancer cell lines; Homo sapiens, T98G, read-out: IC50 in cell proliferation assay, cell line T98G
  IC50: 7.14 µM
134 cancer cell lines; Homo sapiens, TCC-SUP, read-out: IC50 in cell proliferation assay, cell line TCCSUP
  IC50: 1.1 µM
134 cancer cell lines; Homo sapiens, THP-1, read-out: IC50 in cell proliferation assay, cell line THP-1
  IC50: 0.117 µM
134 cancer cell lines; Homo sapiens, U2OS, read-out: IC50 in cell proliferation assay, cell line U2OS
  IC50: 19.3 µM
134 cancer cell lines; Homo sapiens, U-87 MG, read-out: IC50 in cell proliferation assay, cell line U-87MG ATCC
  IC50: 17.5 µM
134 cancer cell lines; Homo sapiens, U-118-MG, read-out: IC50 in cell proliferation assay, cell line U-118MG
  IC50: 16.6 µM
134 cancer cell lines; Homo sapiens, UMUC3, read-out: IC50 in cell proliferation assay, cell line UM-UC-3
  IC50: 17.1 µM
134 cancer cell lines; Hs766T, read-out: IC50 in cell proliferation assay, Hs 766T cell line
  IC50: 7.45 µM
134 cancer cell lines; L-82, read-out: IC50 in cell proliferation assay, L-82 cell line (NPM1-ALK)
  IC50: 20.5 µM
134 cancer cell lines; Rh30, read-out: IC50 in cell proliferation assay, cell line Rh30
  IC50: 3.91 µM
134 cancer cell lines; read-out: IC50 in cell proliferation assay, 11-18 cell line (EGFR p.L858R)
  IC50: 15.5 µM
134 cancer cell lines; read-out: IC50 in cell proliferation assay, Hs 852.T cell line
  IC50: 5.79 µM
134 cancer cell lines; read-out: IC50 in cell proliferation assay, JAR cell line
  IC50: 23.2 µM
134 cancer cell lines; read-out: IC50 in cell proliferation assay, cell line 5637
  IC50: 12.8 µM
134 cancer cell lines; read-out: IC50 in cell proliferation assay, cell line A-388
  IC50: 2.91 µM
134 cancer cell lines; read-out: IC50 in cell proliferation assay, cell line DB
  IC50: 23 µM
134 cancer cell lines; read-out: IC50 in cell proliferation assay, cell line DEL (NPM1-ALK)
  IC50: 27.8 µM
134 cancer cell lines; read-out: IC50 in cell proliferation assay, cell line ES-2 (BRAF p.V600E)
  IC50: > 31.6 µM
134 cancer cell lines; read-out: IC50 in cell proliferation assay, cell line PA-1
  IC50: 17.6 µM
134 cancer cell lines; read-out: IC50 in cell proliferation assay, cell line PC-3
  IC50: 22.7 µM
134 cancer cell lines; read-out: IC50 in cell proliferation assay, cell line RD
  IC50: 1.15 µM
134 cancer cell lines; read-out: IC50 in cell proliferation assay, cell line RKO (BRAF p.V600E)
  IC50: 11 µM
134 cancer cell lines; read-out: IC50 in cell proliferation assay, cell line RL
  IC50: 18.9 µM
134 cancer cell lines; read-out: IC50 in cell proliferation assay, cell line RT-4 (FGFR3-TACC3)
  IC50: 0.12 µM
134 cancer cell lines; read-out: IC50 in cell proliferation assay, cell line SR (NPM1-ALK)
  IC50: 10.9 µM
134 cancer cell lines; read-out: IC50 in cell proliferation assay, cell line T24
  IC50: 1.08 µM
134 cancer cell lines; read-out: IC50 in cell proliferation assay, cell line TT (RET p.C634W)
  IC50: > 31.6 µM
134 cancer cell lines; read-out: IC50 in cell proliferation assay, cell line VA-ES-BJ
  IC50: 5.92 µM
[1]
  inhibition at 1 µM: -5%
[2]
  inhibition at 1 µM: -4%
[3]
  inhibition at 1 µM: -4%
[4]
  inhibition at 1 µM: 3.39%
[5]
  inhibition at 1 µM: 85%
[6]
  inhibition at 1 µM: -2%
[7]
  inhibition at 1 µM: -7%
[8]
  inhibition at 1 µM: 8%
[9]
  inhibition at 1 µM: -8%

Reference: paper PMC9516332 (Frontiers in Oncology, 2022)
